ChEMBL document CHEMBL1275256, “Contribution of a plasmid-borne blaOXA-58 gene with its hybrid promoter provided by IS1006 and an ISAba3-like element to beta-lactam resistance in acinetobacter genomic species 13TU” (2010)
≈ marks a conversion by molar mass, not a printed value. Calls of active or inactive are those of the source. No cut-off for these calls is given here.

Key:
Type in all cases: functional
[1] = Antimicrobial activity against Acinetobacter genomic species 13TU ATCC 17903 by agar dilution method; conditions: Acinetobacter nosocomialis
[2] = Antimicrobial activity against Acinetobacter genomic species 13TU ATCC 17903 harboring pOXA-58-7 plasmid by agar dilution method; conditions: Acinetobacter nosocomialis
[3] = Antimicrobial activity against Acinetobacter genomic species 13TU ATCC 17903 harboring pYMAb3 plasmid by agar dilution method; conditions: Acinetobacter nosocomialis
[4] = Antimicrobial activity against Acinetobacter genomic species 13TU by agar dilution method; conditions: Acinetobacter nosocomialis
[5] = Antimicrobial activity against Acinetobacter genomic species 13TU ATCC 17903 harboring pOXA-58-6 plasmid by agar dilution method; conditions: Acinetobacter nosocomialis
[6] = Antimicrobial activity against Acinetobacter genomic species 13TU ATCC 17903 harboring pOXA-58-5 plasmid by agar dilution method; conditions: Acinetobacter nosocomialis
[7] = Antimicrobial activity against Acinetobacter genomic species 13TU by Vitek II system; conditions: Acinetobacter nosocomialis
[8] = Antimicrobial activity against Acinetobacter genomic species 13TU ATCC 17903 by Vitek II system; conditions: Acinetobacter nosocomialis
[9] = Antimicrobial activity against Acinetobacter genomic species 13TU ATCC 17903 harboring pYMAb3 plasmid by Vitek II system; conditions: Acinetobacter nosocomialis
[10] = Antimicrobial activity against Acinetobacter genomic species 13TU ATCC 17903 harboring pOXA-58-7 plasmid by Vitek II system; conditions: Acinetobacter nosocomialis
[11] = Antimicrobial activity against Acinetobacter genomic species 13TU ATCC 17903 harboring pOXA-58-6 plasmid by Vitek II system; conditions: Acinetobacter nosocomialis
[12] = Antimicrobial activity against Acinetobacter genomic species 13TU ATCC 17903 harboring pOXA-58-5 plasmid by Vitek II system; conditions: Acinetobacter nosocomialis
[13] = system: Acinetobacter nosocomialis; test: Antimicrobial activity against Acinetobacter genomic species 13TU ATCC 17903 harboring pOXA-58-5 plasmid by Etest method
[14] = system: Acinetobacter nosocomialis; test: Antimicrobial activity against Acinetobacter genomic species 13TU ATCC 17903 harboring pOXA-58-6 plasmid by Etest method
[15] = Antimicrobial activity against Acinetobacter genomic species 13TU ATCC 17903 by Vitek II system in presence of Tazobactam; conditions: Acinetobacter nosocomialis
[16] = Antimicrobial activity against Acinetobacter genomic species 13TU ATCC 17903 harboring pOXA-58-5 plasmid by Vitek II system in presence of Tazobactam; conditions: Acinetobacter nosocomialis
[17] = Antimicrobial activity against Acinetobacter genomic species 13TU by Vitek II system in presence of Tazobactam; conditions: Acinetobacter nosocomialis

Compound | MIC [1] [µg/mL] | MIC [2] [µg/mL] | MIC [3] [µg/mL] | MIC [4] [µg/mL] | MIC [5] [µg/mL] | MIC [6] [µg/mL] | MIC [7] [µg/mL] | MIC [8] [µg/mL] | MIC [9] [µg/mL] | MIC [10] [µg/mL] | MIC [11] [µg/mL] | MIC [12] [µg/mL] | Activity [13] | Activity [14] | MIC [15] [µg/mL] | MIC [16] [µg/mL] | MIC [17] [µg/mL]
CC1(C)S[C@@H]2[C@H](NC(=O)[C@H](N)c3ccc(O)cc3)C(=O)N2[C@H]1C(=O)O [AMOXICILLIN] | 64 (≈ 175 µM) | 256 (≈ 701 µM) | 64 (≈ 175 µM) | > 1020 | > 1020 | > 1020 | – | – | – | – | – | – | – | – | – | – | –
CO/N=C(\C(=O)N[C@@H]1C(=O)N2C(C(=O)[O-])=C(C[N+]3(C)CCCC3)CS[C@H]12)c1csc(N)n1 [CEFEPIME] | 2 (≈ 4.16 µM) | – | 2 (≈ 4.16 µM) | 128 (≈ 266 µM) | 2 (≈ 4.16 µM) | 4 (≈ 8.32 µM) | – | – | – | – | – | – | – | – | – | – | –
CC(C)(O/N=C(\C(=O)N[C@@H]1C(=O)N2C(C(=O)[O-])=C(C[n+]3ccccc3)CS[C@H]12)c1csc(N)n1)C(=O)O [CEFTAZIDIME] | 4 (≈ 7.32 µM) | 4 (≈ 7.32 µM) | 4 (≈ 7.32 µM) | 16 (≈ 29.3 µM) | 4 (≈ 7.32 µM) | 4 (≈ 7.32 µM) | – | – | – | – | – | – | – | – | – | – | –
CO/N=C(\C(=O)N[C@@H]1C(=O)N2C(C(=O)O)=C(COC(N)=O)CS[C@H]12)c1ccco1 [CEFUROXIME] | – | – | – | – | – | – | ≥ 64 | 16 (≈ 37.7 µM) | 16 (≈ 37.7 µM) | 16 (≈ 37.7 µM) | 16 (≈ 37.7 µM) | ≥ 64 | – | – | – | – | –
C[C@@H](O)[C@H]1C(=O)N2C(C(=O)O)=C(SCCNC=N)C[C@H]12 [IMIPENEM ANHYDROUS] | 0.25 (≈ 0.835 µM) | 0.5 (≈ 1.67 µM) | 0.25 (≈ 0.835 µM) | 16 (≈ 53.4 µM) | 16 (≈ 53.4 µM) | 32 (≈ 107 µM) | – | – | – | – | – | – | inactive | – | – | – | –
C[C@@H](O)[C@H]1C(=O)N2C(C(=O)O)=C(S[C@@H]3CN[C@H](C(=O)N(C)C)C3)[C@H](C)[C@H]12 [MEROPENEM] | 0.5 (≈ 1.3 µM) | 0.5 (≈ 1.3 µM) | 0.5 (≈ 1.3 µM) | 8 (≈ 20.9 µM) | 8 (≈ 20.9 µM) | 16 (≈ 41.7 µM) | – | – | – | – | – | – | – | inactive | – | – | –
CCN1CCN(C(=O)N[C@@H](C(=O)N[C@@H]2C(=O)N3[C@@H]2SC(C)(C)[C@@H]3C(=O)O)c2ccccc2)C(=O)C1=O [PIPERACILLIN] | 16 (≈ 30.9 µM) | 32 (≈ 61.8 µM) | 16 (≈ 30.9 µM) | > 1020 | 512 (≈ 989 µM) | > 1020 | – | – | – | – | – | – | – | – | ≤ 4 | ≥ 128 | ≥ 128
CC1(C)S[C@@H]2[C@H](NC(=O)[C@H](C(=O)O)c3ccsc3)C(=O)N2[C@H]1C(=O)O [TICARCILLIN] | 16 (≈ 41.6 µM) | 256 (≈ 666 µM) | 16 (≈ 41.6 µM) | > 1020 | > 1020 | > 1020 | – | – | – | – | – | – | – | – | – | – | –
